The target of one test is T1, RORγ-LBD (Homo sapiens, UniProt P51449).
T1 construct: made in house; host or cells: SF9 cells (baculovirus); used as diluted lysate
T1 sequence (P51449 269-508 limits assumed): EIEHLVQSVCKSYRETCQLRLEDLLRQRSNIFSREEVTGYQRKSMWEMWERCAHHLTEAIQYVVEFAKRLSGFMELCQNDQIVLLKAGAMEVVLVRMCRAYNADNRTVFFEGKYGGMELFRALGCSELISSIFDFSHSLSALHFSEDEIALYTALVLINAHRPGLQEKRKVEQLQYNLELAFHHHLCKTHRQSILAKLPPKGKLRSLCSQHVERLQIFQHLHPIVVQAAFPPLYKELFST
The test is described as follows: RORγ-Ligand Binding Domain (LBD) TR-FRET Assay.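 For TR-FRET Assay Max Response: 665/615 nm signal ratio set to 100 without ursolic acid or test compound.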 The class given is biochemical. The note with it: for TR-FRET Assay Max Response: maximum response. In a few lines: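 His-tagged RORγ-LBD from SF9 baculovirus lysate, ~3 nM final, in 50 mM Tris pH 7.0, 50 mM KCl, 1 mM EDTA, 0.1 mM DTT, 0.01% BSA. Biotinylated SRC1 LXXLL peptide at 200 nM final with 2 μM ursolic acid; TR-FRET read-out, 1% DMSO final.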

A further test addresses T2, Gal4-RORγ-LBD (Homo sapiens, UniProt P51449).
T2 construct: expressed in transfected cells
T2 sequence (P51449 269-508 limits assumed): T1 sequence (P51449 269-508 limits assumed)
As to the kind of experiment: Gal4-RORγ Luciferase Reporter Assay in HEK-293T Cells. The class given is cell-based. The note with it: HEK-293 cells; for Gal4-RORγ Assay Max Response: maximum response. Summed up: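 HEK-293 cells were co-transfected with Gal4-RORγ-LBD and a Gal4-luciferase reporter, then exposed overnight at 37 °C to compounds with […] ursolic acid present (0.2% DMSO). Luminescence was read with One-Glo after 10 min at RT, untreated signal was set as 100, and Max Response was taken as the upper plateau of a 4-parameter logistic fit.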

[1] abbreviates: luciferase reporter, in presence of ursolic acid.
[2] abbreviates: luciferase reporter, with ursolic acid.

pEC50: −log10 of the molar value.

As usually defined, the pEC50 is the negative decadic logarithm of the EC50, by convention in mol/L. For `COc1cc(S(=O)(=O)N2C[C@H](CCNC(=O)[C@H](C)O)Oc3ccc(/C=C(\C)c4c(F)cccc4Cl)cc32)ccc1F` [Example 116D, (S)-N-(2-((S)-6-((E)-2-(2-chloro-6-fluorophenyl)prop-1-en-1-yl)-4-((4-fluoro-3-methoxyphenyl)sulfonyl)-3,4-dihydro-2H-benzo[b][1,4]oxazin-2-yl)ethyl)-2-hydroxypropanamide], at RORγ-LBD (RORγ-LBD TR-FRET assay), the pEC50 was > 6.30 and the “TR-FRET Assay Max Response” value was “*** (a value in the range of greater than 150 to 200)”. For the same compound, at Gal4-RORγ-LBD (setting [1]), the negative-log EC50 (pEC50) is > 6.30 and the “Gal4-RORγ Assay Max Response” value is on record as “** (a value in the range of greater than 90 to 150)”.
Turning to `C/C(=C\c1ccc2c(c1)N(S(=O)(=O)c1cn(C(F)F)nc1C)C[C@H](CCC(=O)O)O2)c1c(F)cccc1Cl` [Example 86W, (S,E)-3-(6-(2-(2-chloro-6-fluorophenyl)prop-1-en-1-yl)-4-((1-(difluoromethyl)-3-methyl-1H-pyrazol-4-yl)sulfonyl)-3,4-dihydro-2H-benzo[b][1,4]oxazin-2-yl)propanoic acid], the results for the pEC50 on RORγ-LBD (RORγ-LBD TR-FRET) and on Gal4-RORγ-LBD (setting [2]) were > 6.30 and < 5.00, respectively.
For `COc1cccc(Cl)c1/C=C/c1ccc2c(c1)N(S(=O)(=O)c1cccc(C(F)(F)F)c1)C[C@H](CCC(=O)O)O2` [Example 89EY, (S,E)-3-(6-(2-chloro-6-methoxystyryl)-4-((3-(trifluoromethyl)phenyl)-sulfonyl)-3,4-dihydro-2H-benzo[b][1,4]oxazin-2-yl)propanoic acid], in that order: > 6.30 and 5.30 to 6.30.
For `CCn1cc(S(=O)(=O)N2C[C@H]([C@@H](C)NC(C)=O)Oc3ccc(/C=C(\C)c4c(F)cccc4Cl)cc32)c(Cl)n1` [Example 102, N—((R)-1-((R)-4-((3-Chloro-1-ethyl-1H-pyrazol-4-yl)sulfonyl)-6-((E)-2-(2-chloro-6-fluorophenyl)prop-1-en-1-yl)-3,4-dihydro-2H-benzo[b][1,4]oxazin-2-yl)ethyl)acetamide], in that order: > 6.30 and > 6.30.
On the same counts, the results for `O=C(O)CC[C@H]1CN(S(=O)(=O)c2cccc(C(F)(F)F)c2)c2cc(/C=C/c3c(Cl)cccc3C(F)F)ccc2O1` [Example 89EN, (S,E)-3-(6-(2-chloro-6-(difluoromethyl)styryl)-4-((3-(trifluoromethyl)phenyl)sulfonyl)-3,4-dihydro-2H-benzo[b][1,4]oxazin-2-yl)propanoic acid] are > 6.30 and > 6.30.
`COC(=O)CC[C@H]1CN(S(=O)(=O)c2cccc(C(F)(F)F)c2)c2c(ccc(/C=C(\C)c3c(F)cccc3Cl)c2F)O1` [Example 61, Methyl (S,E)-3-(6-(2-(2-chloro-6-fluorophenyl)prop-1-en-1-yl)-5-fluoro-4-((3-(trifluoromethyl)phenyl)sulfonyl)-3,4-dihydro-2H-benzo[b][1,4]oxazin-2-yl)propanoate]: the results for the pEC50 at RORγ-LBD (RORγ-LBD TR-FRET) and on Gal4-RORγ-LBD (setting [2]) were > 6.30 and 5.30 to 6.30, respectively.
On the same counts, the results for `COC(=O)CC[C@H]1CN(S(=O)(=O)c2cccc(OC(F)F)c2)c2c(ccc(/C=C(\C)c3c(F)cccc3Cl)c2F)O1` [Example 63, Methyl (S,E)-3-(6-(2-(2-chloro-6-fluorophenyl)prop-1-en-1-yl)-4-((3-(difluoromethoxy)phenyl)sulfonyl)-5-fluoro-3,4-dihydro-2H-benzo[b][1,4]oxazin-2-yl)propanoate] are > 6.30 and 5.30 to 6.30.
On the same counts, the results for `CCOc1nn(CC)cc1S(=O)(=O)N1C[C@H](CCC(=O)O)Oc2ccc(/C=C/c3c(Cl)cccc3C(F)F)cc21` [Example 89EH, (S,E)-3-(6-(2-chloro-6-(difluoromethyl)styryl)-4-((3-ethoxy-1-ethyl-1H-pyrazol-4-yl)sulfonyl)-3,4-dihydro-2H-benzo[b][1,4]oxazin-2-yl)propanoic acid] are > 6.30 and > 6.30.
For `O=C(O)CC[C@H]1CN(S(=O)(=O)c2cccc(C(F)(F)F)c2)c2cc(/C=C/c3c(Cl)cc(F)cc3Cl)ccc2O1` [Example 89CM, (S,E)-3-(6-(2,6-dichloro-4-fluorostyryl)-4-((3-(trifluoromethyl)phenyl)sulfonyl)-3,4-dihydro-2H-benzo[b][1,4]-oxazin-2-yl)propanoic acid], in that order: > 6.30 and 5.30 to 6.30.
Turning to `C/C(=C\c1ccc2c(c1)N(S(=O)(=O)c1cccc(C(F)(F)F)c1)C[C@H](CCC(=O)N1CCC[C@@H]1C(=O)O)O2)c1c(F)cccc1Cl` [Example 129H, (3-((S)-6-((E)-2-(2-chloro-6-fluorophenyl)prop-1-en-1-yl)-4-((3-(trifluoromethyl)phenyl)sulfonyl)-3,4-dihydro-2H-benzo[b][1,4]oxazin-2-yl)propanoyl)-D-proline], on RORγ-LBD (RORγ-LBD TR-FRET assay), the pEC50 is > 6.30 and the “TR-FRET Assay Max Response” value was “*** (a value in the range of greater than 150 to 200)”. Besides, at Gal4-RORγ-LBD (setting [1]), the pEC50 is > 6.30 and the “Gal4-RORγ Assay Max Response” value is given as “*** (a value in the range of greater than 150 to 200)”.
With `CCc1nc(S(=O)(=O)N2C[C@H](CCC(=O)O)Oc3ccc(/C=C/c4c(F)cccc4Cl)cc32)c[nH]1` [Example 89DW, (S,E)-3-(6-(2-chloro-6-fluorostyryl)-4-((2-ethyl-1H-imidazol-4-yl)sulfonyl)-3,4-dihydro-2H-benzo[b][1,4]-oxazin-2-yl)propanoic acid], the pEC50 at RORγ-LBD (RORγ-LBD TR-FRET) and at Gal4-RORγ-LBD (setting [2]) was < 5.00 throughout.
As for `O=S(=O)(c1cccc(C(F)(F)F)c1)N1C[C@H](CCO)Oc2ccc(COc3c(F)cccc3Cl)cc21`, the pEC50 is > 6.30 on RORγ-LBD (with 2 μM ursolic acid (RORγ antagonist), highest test concentration 10 μM) and 5.30 to 6.30 at Gal4-RORγ-LBD (ursolic acid present, luciferase readout).
For the compound `CCOc1ncc(C(F)(F)F)cc1S(=O)(=O)N1C[C@H](CCC(=O)O)Oc2ccc(/C=C(\C)c3c(Cl)cccc3C(F)(F)F)cc21` [Example 77, (S,E)-3-(6-(2-(2-Chloro-6-(trifluoromethyl)phenyl)prop-1-en-1-yl)-4-((2-ethoxy-5-(trifluoromethyl)pyridin-3-yl)sulfonyl)-3,4-dihydro-2H-benzo[b][1,4]oxazin-2-yl)propanoic acid], the negative logarithm of the EC50 (pEC50) on RORγ-LBD (RORγ-LBD TR-FRET) was > 6.30; on Gal4-RORγ-LBD (setting [2]), 5.30 to 6.30.
For `CCC(=Cc1ccc2c(c1)N(S(=O)(=O)c1cccc(C(F)(F)F)c1)C[C@H](CCC(=O)O)O2)CC` [Example 95E, (S)-3-(6-(2-ethylbut-1-en-1-yl)-4-((3-(trifluoromethyl)phenyl)-sulfonyl)-3,4-dihydro-2H-benzo[b][1,4]oxazin-2-yl)propanoic acid], in that order: > 6.30 and > 6.30.
For `CCOc1nn(CC)cc1S(=O)(=O)N1C[C@H](CCC(=O)O)Oc2ccc(/C=C/c3ccccc3C)cc21` [Example 89AS, (S,E)-3-(4-((3-ethoxy-1-ethyl-1H-pyrazol-4-yl)sulfonyl)-6-(2-methylstyryl)-3,4-dihydro-2H-benzo[b][1,4]oxazin-2-yl)propanoic acid], in that order: > 6.30 and < 5.00.
`O=C(O)CC[C@H]1CN(S(=O)(=O)c2cc(C(F)(F)F)cnc2OCCO)c2cc(C=C3CCOCC3)ccc2O1` [Example 95O, (S)-3-(4-((2-(2-hydroxyethoxy)-5-(trifluoromethyl)pyridin-3-yl)sulfonyl)-6-((tetrahydro-4H-pyran-4-ylidene)methyl)-3,4-dihydro-2H-benzo[b][1,4]oxazin-2-yl)propanoic acid]: the pEC50 on RORγ-LBD (RORγ-LBD TR-FRET) is > 6.30; at Gal4-RORγ-LBD (setting [2]), 5.30 to 6.30.
On the same counts, the results for `N#Cc1ccccc1/C=C/c1ccc2c(c1)N(S(=O)(=O)c1cccc(OC(F)F)c1)C[C@H](CCC(=O)O)O2` [Example 89AQ, (S,E)-3-(6-(2-cyanostyryl)-4-((3-(difluoromethoxy)phenyl)sulfonyl)-3,4-dihydro-2H-benzo[b][1,4]oxazin-2-yl)propanoic acid] are > 6.30 and 5.30 to 6.30.
Take `C/C(=C\c1ccc2c(c1)N(S(=O)(=O)c1cccc(C(F)(F)F)c1)C[C@H]([C@H](C)O)O2)c1c(F)cccc1Cl` [Example 96, (S)-1-((R)-6-((E)-2-(2-Chloro-6-fluorophenyl)prop-1-en-1-yl)-4-((3-(trifluoromethyl)phenyl)sulfonyl)-3,4-dihydro-2H-benzo[b][1,4]oxazin-2-yl)ethan-1-ol]: the negative logarithm of the EC50 (pEC50) at RORγ-LBD (RORγ-LBD TR-FRET) and on Gal4-RORγ-LBD (setting [2]) was > 6.30 throughout.
For `COc1cc(S(=O)(=O)N2C[C@H](CNC(C)=O)Oc3c(F)cc(/C=C(\C)c4c(F)cccc4Cl)cc32)ccc1F` [Example 108, (S,E)-N-((6-(2-(2-Chloro-6-fluorophenyl)prop-1-en-1-yl)-8-fluoro-4-((4-fluoro-3-methoxyphenyl)sulfonyl)-3,4-dihydro-2H-benzo[b][1,4]oxazin-2-yl)methyl)acetamide], on RORγ-LBD (RORγ-LBD TR-FRET assay), the pEC50 is > 6.30 and the “TR-FRET Assay Max Response” value was “** (a value in the range of greater than 90 to 150)”. On Gal4-RORγ-LBD (setting [1]), the pEC50 was > 6.30 and the “Gal4-RORγ Assay Max Response” value is on record as “* (a value in the range of 30 to 90)”.

The values above are taken from patent publication US9896441B2 (Lycera Corporation, priority 2014, dated 2018).
